The source of these data is PubChem BioAssay (NCI).

The assay deals with MDA-MB-468 breast. The assay is described as follows: NCI anticancer screen, dose series, 48 h.

SMILES strings stand for the structures. Values joined by “and” are separate entries in the source; they are usually repeats but may differ in a detail not shown here. Equal entries are not always repeated.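 Exposure lasted 48 hours, with cells grown in 96-well plates and compounds tested at five concentrations. GI50 marks 50% less growth. The concentration for full growth arrest is given as TGI.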 Where a SMILES comes first, the peptide text is derived from it. [ ]: non-standard residue; d: D form. The star is where a group is joined. Dolaproine = CO[C@@H]([C@@H]1CCCN1)[C@@H](C)C(=O)O; Dil = CC[C@H](C)[C@H](NC)[C@@H](CC(=O)O)OC; X2 = C[C@@H](N*)[C@@H](O)c1ccccc1; NMeV = CN[C@H](C(=O)O)C(C)C A value given as a limit tells only on which side of the number the result lay.

Consider `CC1CCCc2sc3nc(NNC(=O)c4cnccn4)n(-c4ccccc4)c(=O)c3c21` (stereo not given), for which the GI50 is 333 nM and 239 nM; the TGI was 2.3 µM and 0.946 µM.
For the compound `CSc1nc(-c2cc3ccccc3o2)cc(-c2ccc(Cl)cc2)c1C#N`, the GI50 was 21800 nM and the TGI is more than 100 µM.
With `O=C(C[n+]1cccc2cc(Cl)ccc21)c1ccc2c(c1)CCCC2`, the GI50 is 423 nM and the TGI turned out to be 1.82 µM.
For the compound `Nc1n[nH]c2cccc(C#Cc3cccc(NC(=O)c4ccc(N5CCOCC5)c(C(F)(F)F)c4)c3)c12`, the GI50 was 2280 nM and the TGI amounted to 6.82 µM.
The matching figures for `COC1=C(OC)C(=O)C(CCCCCCCCCC[P+](c2ccccc2)(c2ccccc2)c2ccccc2)=C(C)C1=O`: 66.8 nM and 0.694 µM.
In the case of `Clc1ccc2c(N3CCN(c4ccnc(NC5CCCCC5)n4)CC3)ccnc2c1`, the GI50 is 1640 nM and the TGI turned out to be 3.6 µM.
Turning to `c1cc[n+](C2c3ccccc3C([n+]3ccccc3)c3ccccc32)cc1` (stereo not given), the GI50 is 1110 nM and the TGI amounted to 4.4 µM.
On the same counts, the results for `CC[N+](CC)=c1cc2oc3cc(N(C)C)ccc3nc-2cc1C` are 1330 nM and 4.39 µM.
With `COc1ccc2c(c1)C=CC1(O2)Oc2ccc(OC)cc2C=C1C` (stereo not given), the GI50 is 876 nM and the TGI is more than 100 µM.
Turning to `Cc1ccc(S(=O)(=O)c2ccccc2)cc1`, the GI50 was 1590 nM and the TGI was 5.78 µM.
Take `O=C1/C(=C/c2ccccc2)CN(C(=O)CCN2CCC(=NO)CC2)C/C1=C\c1ccccc1`: the GI50 is 1740 nM and the TGI is 4.25 µM.
As to `CCOc1cc(F)c([N+](=O)[O-])cc1[N+](=O)[O-]`, the GI50 is 1860 nM and the TGI was found to be 3.51 µM.
With `C[C@]12CC[C@@H]3c4ccc(O)cc4CC[C@H]3[C@@H]1CC[C@@H]2NS(=O)(=O)c1ccc(Cl)cc1`, the GI50 is 4940 nM and the TGI is 17.3 µM.
On the same counts, the results for `COc1cc(Nc2ccnc(NCCNc3ccnc4cc(Cl)ccc34)n2)cc(OC)c1` are 1040 nM and 3.33 µM.
On the same counts, the results for `Cc1ccc(C)c(NC2=C(Cl)C(=O)c3nc(C)ccc3C2=O)c1` are 1510 nM and 3.08 µM.
In the case of `COc1cccc2[nH]c3c4c(c5c(c3c12)C(=O)N(CN1CCN(C)CC1)C5=O)CCC4`, the GI50 is 5150 nM and the TGI stood at 26.6 µM.
Turning to `C=CC(=O)N1CCN(CCCn2c(=O)c(-c3c(Cl)c(OC)cc(OC)c3Cl)cc3cnc(NC)nc32)CC1`, the GI50 was 1240 nM and the TGI is 5.9 µM.
Regarding `Nc1ccc(S(=O)(=O)c2ccc(N)cc2)cc1`, the GI50 was more than 100000 nM and the TGI was more than 100 µM.
For the compound `COc1ccc(-c2cn[nH]c2-c2cc(OC)c(OC)c(OC)c2)cc1OCc1ccccc1`, the GI50 is 2180 nM and the TGI is 7.94 µM.
On the same counts, the results for `O=C1Nc2ccccc2/C1=C\c1c(-c2ccccc2)nc2ccccn12` are 2100 nM and 6.67 µM.
The matching figures for `CCNC(=O)N1CCc2cc(OC)c(OCCc3ccc(OC)cc3)cc2C1c1ccc(OC)cc1C` (stereo not given): 1930 nM and more than 30.2 µM.
On the same counts, the results for `O=C(Cc1n[nH]c(=O)c2ccccc12)OCc1c(Cl)cccc1Cl` are more than 100000 nM and more than 100 µM.
Turning to `COc1ccc(/C(C)=C(\c2ccc(Cl)cc2)c2ccc(OCCN3CCCCC3)cc2)cc1`, the GI50 is 3670 nM and the TGI was determined as 8.03 µM.
For `O=C(Nc1ccc2[nH]c3ccccc3c2c1)c1ccccc1Cl`, the GI50 is 2860 nM and the TGI was 24.9 µM.
On to `O=C(Nc1ncc(Cc2ccccc2)s1)c1sc2ccccc2c1Cl`, for which the GI50 is 1400 nM and the TGI turned out to be 18.7 µM.
On to `O=C1/C=C/[C@@H](O)[C@@H]2C[C@@H](O)C[C@H]2/C=C/CCC[C@H](CCOCc2ccccc2)O1`, for which the GI50 is less than 16.1 nM and the TGI worked out at 0.0312 µM.
For `N#CC1(Nc2ccc(Br)cc2)CCCC1`, the GI50 is more than 100000 nM and the TGI was more than 100 µM.
As for `CCCCC(CCCCCC(CCCC)C1NC(C)Cc2cc(OC)c(OC)cc21)C1NC(C)Cc2cc(OC)c(OC)cc21` (stereo not given), the GI50 is 436 nM and the TGI stood at 1.88 µM.
For `COc1cccc(C2=C(c3cn(C)c4ccc(Cl)cc34)C(=O)NC2=O)c1`, the GI50 is 4170 nM and the TGI was found to be 17.1 µM.
For the compound `Cc1nc2ccccc2nc1NNc1ccccc1`, the GI50 is 10300 nM and the TGI worked out at 58 µM.
For the compound `COc1cc(C2C3=C(COC3=O)N(CCO)c3cc4c(cc32)OCO4)cc(OC)c1OC` (stereo not given), the GI50 was 242 nM and 344 nM; the TGI was 0.626 µM and 0.979 µM.
With `CNC(=O)c1ccccc1Nc1cc(Nc2ccc(N3CCOCC3)cc2OC)ncc1C(F)(F)F`, the GI50 was 27800 nM and the TGI was 97.8 µM.
Regarding `CN[C@@H](C)C(=O)N[C@H]1CCS[C@H]2CC(C)(C)[C@@H](C(=O)N[C@H]3c4ccccc4C[C@H]3OCC#CC#CCO[C@@H]3Cc4ccccc4[C@@H]3NC(=O)[C@H]3N4C(=O)[C@@H](NC(=O)[C@H](C)NC)CCS[C@H]4CC3(C)C)N2C1=O`, the GI50 is less than 5 nM and the TGI worked out at 0.0164 µM.
On the same counts, the results for `Clc1ccc(C(Cn2ccnc2)OCc2ccsc2Cl)c(Cl)c1` (stereo not given) are 2300 nM and 7.3 µM.
Consider `CC[C@H](C)[C@@H]([C@@H](CC(=O)N1CCC[C@H]1[C@H](OC)[C@@H](C)C(=O)N[C@H](C)[C@@H](O)c1ccccc1)OC)N(C)C(=O)[C@@H](NC(=O)[C@@H](NC)C(C)C)C(C)C` (H-[NMeV]V[Dil][Dolaproine]-X2), for which the GI50 is less than 5 nM and the TGI was more than 57.1 µM.
`CC[C@H](C)[C@H](NC(=O)c1ccccn1)C(=O)N(C)[C@H](C[C@@H](OC(C)=O)c1nc(C(=O)N[C@@H](Cc2ccccc2)C[C@H](C)C(=O)OC)cs1)C(C)C`: the GI50 was 3380 nM and the TGI amounted to 15.4 µM.
On the same counts, the results for `NC(N)=NN=C(c1ccccc1)c1ccccc1` are 2200 nM and 12.2 µM.
As for `C[C@@H]1C[C@H]2C(=O)OCC(NC(=O)[C@H](Cc3cc(F)cc(F)c3)NC(=O)Nc3ccc(Cl)cc3F)C(=O)N3CCC[C@H]3C(=O)N3CCCC[C@H]3C(=O)N[C@@H](C)C(=O)N2C1` (stereo not given in full), the GI50 was 1430 nM and 294 nM; the TGI is 18.8 µM and 2.88 µM.
`COc1cc(/C=C/C(=O)c2ccc(Nc3nc(NCCO)nc(N4CCOCC4)n3)cc2)cc(OC)c1OC`: the GI50 is 1340 nM and the TGI came to 3.76 µM.
Regarding `COc1ccc2cc(C#Cc3ccc(-n4c(/C=C/c5cc(OC)c(OC)c(OC)c5)nc5ccccc5c4=O)c(C)c3)ccc2c1`, the GI50 is 3800 nM and the TGI was more than 100 µM.
